From PubChem BioAssay AID1996
Values after ≈ are worked out from the molar mass of the structure shown.

Settings: buffer; pH 7.4; 200.0 µM

| solubility kinetic | Compound |
| --- | --- |
| > 51.2 µg/mL | O=C(CNC(=O)c1ccccc1)NCC(c1ccco1)N1CCCC1 (stereo not given) |
| 33.8 µg/mL (≈ 148 µM) | S=C(NC1CCCCC1)N1CCOCC1 |
| 3.1 µg/mL (≈ 9.86 µM) | NC(=O)c1ccccc1NC(=O)COc1ccc2c(c1)OCO2 |
| > 45.1 µg/mL | Cn1c(CO)cnc1S(=O)(=O)Cc1ccc(Cl)cc1 |
| > 39.8 µg/mL | O=C(COC(=O)c1ccc(F)cc1F)c1ccc[nH]1 |
| 9.4 µg/mL (≈ 30.2 µM) | Cc1ccc(-n2c(=O)[nH]c3c(C(N)=O)nc(C(C)C)nc32)cc1 |
| 4.6 µg/mL (≈ 15.8 µM) | COc1ccc(C(=O)NC(=S)NCc2ccco2)cc1 |
| 7.4 µg/mL (≈ 33.8 µM) | Nc1nc2c(Cl)cc(Cl)cc2s1 |
| 2.9 µg/mL (≈ 9.14 µM) | COc1ccc(C(=O)NC2CCSc3ccccc32)cc1F (stereo not given) |
| 18.9 µg/mL (≈ 67.4 µM) | O=C(CN1C(=O)c2ccccc2C1=O)Nc1ccccc1 |
| > 45 µg/mL | CNC(=O)CN1C(=O)NC(Cc2c[nH]c3ccccc23)C1=O (stereo not given) |
| 35.6 µg/mL (≈ 147 µM) | Cc1noc(C(=O)NC2CCCCC2)c1Cl |
| 0.4 µg/mL (≈ 1.28 µM) | CCOc1ccc(NC(=O)NCCCCc2ccccc2)cc1 |
| > 42.8 µg/mL | CC1CCCC(NC(=O)CSc2nncs2)C1C (stereo not given) |
| 5.9 µg/mL (≈ 21 µM) | Cc1ccc2ncnc(Nc3cccc([N+](=O)[O-])c3)c2c1 |
| > 46.3 µg/mL | Cc1cc(CNC(=O)Cc2ccc(F)cc2)c2ccccc2n1 |
| 0.7 µg/mL (≈ 2.16 µM) | CC(=O)OCc1c(-c2ccccc2)c2cc([N+](=O)[O-])ccc2n1C |
| 0.4 µg/mL (≈ 1.22 µM) | NC(=O)NC(=O)COC(=O)/C=C/c1cccc(Br)c1 |
| > 23.4 µg/mL | CC(=O)Nc1nc(C)cs1 |
| > 74.5 µg/mL | NS(=O)(=O)c1cccc(NC(=O)CN2CCN(S(=O)(=O)c3ccc4c(c3)OCCO4)CC2)c1 |
| < 0.3 µg/mL | O=C(Nc1cccc(F)c1)Nc1ccc2c(c1)C(=O)OC2 |
| > 49 µg/mL | O=C1CCCc2nc(N3CCN(C(=O)c4ccco4)CC3)ncc21 |
| 2.1 µg/mL (≈ 6.75 µM) | CCOC(=O)c1cnc(Nc2ccccc2)nc1C(F)(F)F |
| 27.3 µg/mL (≈ 109 µM) | Cc1cc(C)c(C)c(OCCN2CCOCC2)c1 |

| solubility kinetic | Compound |
| --- | --- |
| > 50.5 µg/mL | Cc1csc(SC(C)C(=O)Nc2ccc3c(c2)OCCO3)n1 (stereo not given) |
| 2.7 µg/mL | Cl.Clc1ccc(NCc2ccsc2)cc1 |
| 11.6 µg/mL (≈ 34 µM) | O=S(=O)(NC1CCSc2ccccc21)c1ccc(Cl)nc1 (stereo not given) |
| 5.4 µg/mL (≈ 20.4 µM) | CCCCOC(=O)CSc1nc2ccccc2o1 |
| > 35.3 µg/mL | COc1ccccc1NC(=O)C1CCOC1=O (stereo not given) |
| 40.9 µg/mL (≈ 131 µM) | Cc1cccc(-c2noc(CN(C)C(=O)c3ccoc3C)n2)c1 |
| 18.2 µg/mL (≈ 115 µM) | Nc1cccc(-n2cccc2)c1 |
| 38.4 µg/mL (≈ 126 µM) | COc1cc(OC)cc(C(=O)NC2CC3CCC(C2)N3C)c1 (stereo not given) |
| > 49.6 µg/mL | Cn1c(Cc2ccccc2)nnc1SCC(=O)NC1CCCC1 |
| 2.8 µg/mL (≈ 8.94 µM) | COc1ccc(NC(=O)O/N=C/c2ccc(N(C)C)cc2)cc1 |
| 1.2 µg/mL (≈ 4.1 µM) | CCOC(=O)c1sc(Nc2nc(C)cc(C)n2)nc1C |
| > 33.1 µg/mL | Cn1ccnc1C(=O)c1ccccc1Cl |
| > 47.3 µg/mL | Cc1oc(C)c(S(=O)(=O)NCc2cccs2)c1C(=O)O |
| > 40.8 µg/mL | Cn1cc(S(=O)(=O)N2CCNCC2)cc1C(N)=O |
| 46.9 µg/mL (≈ 147 µM) | CCC1C(C#N)=C(SCC(N)=O)NC2=C1C(=O)CC(C)(C)C2 (stereo not given) |
| 4.7 µg/mL (≈ 13.3 µM) | COc1ccc(S(=O)(=O)Nc2ccc(Nc3ccccc3)cc2)cc1 |
| > 43.6 µg/mL | C=CCN1CCN(C(=O)c2cc3c(s2)CCCC3)CC1 |
| > 56.2 µg/mL | O=C(C1=C(O)C(=O)N(CCOCCO)C1c1ccccn1)c1cccs1 (stereo not given) |
| 1.1 µg/mL (≈ 3.67 µM) | N#Cc1nc(-c2ccco2)oc1NCc1ccccc1Cl |
| > 41.6 µg/mL | Cc1cc(C)c(C#N)c(SCCN2CCOCC2)n1 |
| 4.2 µg/mL (≈ 10.9 µM) | COc1ccc(NC(=O)c2cc(-c3ccncc3)nc3ccccc23)c(OC)c1 |
| 0.6 µg/mL (≈ 1.69 µM) | CCOC(=O)CSc1nc(COc2ccccc2)nc2ccccc12 |
| > 57.7 µg/mL | CC(C)(C)S(=O)(=O)c1ccccc1-c1noc(-c2ccccc2)c1C(N)=O |
| < 0.4 µg/mL | COc1ccc(O)c(C2=Nc3ccccc3N=C(c3ccccc3)C2)c1 |

| solubility kinetic | Compound |
| --- | --- |
| 21.9 µg/mL (≈ 67.3 µM) | CC(=O)NC(C)C(=O)OCC(=O)c1ccc(-c2ccccc2)cc1 (stereo not given) |
| > 46.9 µg/mL | O=C(CSc1nnc2ccccn12)NC(=O)c1ccccc1 |
| 4 µg/mL (≈ 11.6 µM) | COc1ccccc1N1CCN(C(=S)Nc2ccc(F)cc2)CC1 |
| > 38.2 µg/mL | Cc1cc(Cc2cc(C)c(N)cc2C)c(C)cc1N |
| > 53.4 µg/mL | CCN1CCN(C(=S)NC(=O)c2cccc(Br)c2)CC1 |
| > 46.9 µg/mL | CCc1ccc(N2CN(Cc3cccnc3)CNC2=S)cc1 |
| > 45.5 µg/mL | COc1cccc(NC(=O)CN(C)C(=O)c2cc(C)on2)c1 |
| < 0.3 µg/mL | CCc1ccc(NC(=O)Nc2ccc3c(c2)CCC3)cc1 |
| > 49.7 µg/mL | COc1ccc(C(OC(=O)c2ccco2)C(=O)NC(C)(C)C)cc1 (stereo not given) |
| > 40 µg/mL | CCc1c(C(=O)N2CCCN(C)CC2)csc1C |
| 13.8 µg/mL (≈ 38.1 µM) | N#CC1(NC(=O)Cn2cc(C(F)(F)F)cc(Cl)c2=O)CCCCC1 |
| > 47.8 µg/mL | CCN(CC)C(=S)Nc1c(C)n(C)n(-c2ccccc2)c1=O |
| 40.8 µg/mL (≈ 140 µM) | c1ccc(N2CCN(Cc3cn4ccccc4n3)CC2)cc1 |
| 12.2 µg/mL (≈ 24.8 µM) | COc1ccc(C(=O)OCC(=O)NCc2ccc3c(c2)OCO3)cc1S(=O)(=O)N1CCOCC1 |
| 9.2 µg/mL (≈ 34.4 µM) | Cc1ccc(CNC(=O)CCCc2ccccc2)cc1 |
| > 52.5 µg/mL | O=C(CCNC(=O)c1ccc([N+](=O)[O-])cc1)Oc1ccc(F)c(F)c1 |
| 40.7 µg/mL (≈ 131 µM) | Cc1cc(OC(C)C(=O)NCC2CCCO2)cc(C)c1Cl (stereo not given) |
| > 47 µg/mL | CN(C)S(=O)(=O)c1ccc(C(=O)OC2CCOC2=O)cc1 (stereo not given) |
| > 47.6 µg/mL | Cc1cc(=O)[nH]c(SCC(=O)Nc2ccc(F)cc2)c1C#N |
| > 36.3 µg/mL | CCCCn1cnc2c(oc3ccccc32)c1=O |
| > 46.4 µg/mL | Cc1ccc(NS(=O)(=O)c2c(C)[nH]c(=O)[nH]c2=O)c(C)c1 |
| > 34.9 µg/mL | O=C(Nc1ccncc1)c1ccc(Cl)cc1 |
| 34.9 µg/mL (≈ 130 µM) | O=C(NCc1ccc(F)cc1)c1cc2ccccc2o1 |
| 47.1 µg/mL (≈ 149 µM) | Cc1ccc(NC(=O)COC(=O)C2CC2(Cl)Cl)cc1C (stereo not given) |

| solubility kinetic | Compound |
| --- | --- |
| > 41.4 µg/mL | CC(=O)N1CCN(C(=O)c2ccc3c(c2)OCO3)CC1 |
| > 74.7 µg/mL | NS(=O)(=O)c1ccc(CCNC(=O)c2ccc(Cl)c(S(=O)(=O)NCc3ccco3)c2)cc1 |
| 54.4 µg/mL | Br.COc1ccc(C2=CSC3=NCCN23)cc1Br |
| > 33.2 µg/mL | O=C1[C@H](O)[C@@H](O)C(=O)N1Cc1ccccc1 |
| 0.2 µg/mL (≈ 0.54 µM) | N=C1SC(CC(=O)Nc2ccccc2[N+](=O)[O-])C(=O)N1c1ccccc1 (stereo not given) |
| 24.1 µg/mL (≈ 88.8 µM) | Cc1[nH]c2ccccc2c1C(=O)COC(=O)C1CCC1 |
| 13.8 µg/mL (≈ 42.8 µM) | CN(Cc1cc2ccccc2[nH]c1=O)C(=O)COc1ccccc1 |
| 2.7 µg/mL (≈ 8.87 µM) | CNC(=O)c1c(NC(=O)c2ccco2)sc2c1CCCC2 |
| 0.4 µg/mL (≈ 1.11 µM) | COc1ccc(C(=O)Nc2ccc(NC(=O)Cc3ccccc3)cn2)cc1 |
| 36.5 µg/mL (≈ 134 µM) | CN(C)C(=S)Nc1ccc(Cc2ccncc2)cc1 |
| 41 µg/mL (≈ 147 µM) | N#Cc1ccc(OCCN2CCc3ccccc3C2)cc1 |
| 3 µg/mL (≈ 8.44 µM) | CC(C)(C)NS(=O)(=O)c1ccc(NC(=S)NC(=O)C2CC2)cc1 |
| 39.7 µg/mL (≈ 143 µM) | COc1ccccc1NC(=O)NCCN1CCNC1=O |
| 39.1 µg/mL (≈ 114 µM) | Cc1cccc(C)c1NC(=O)C1CCN(C(=O)c2cccs2)CC1 |
| 36.8 µg/mL (≈ 129 µM) | COC(=O)CCC(=O)NC(=S)Nc1ccccc1F |
| 8.9 µg/mL (≈ 25.8 µM) | COc1ccccc1CC(=O)N(Cc1ccccc1)c1cccc(C)c1 |
| 48.6 µg/mL (≈ 147 µM) | COc1ccc(Cl)cc1S(=O)(=O)NCCCn1ccnc1 |
| > 45.1 µg/mL | O=C(NCCc1ccccc1)C1CC(=O)N(C2CCCC2)C1 (stereo not given) |
| > 43.2 µg/mL | Cl.O=C(OCCN1CCCCC1)c1ccccc1F |
| > 26.3 µg/mL | O=C(O)Cc1c[nH]c2ccccc12 |
| > 51.4 µg/mL | Nc1nc(NCCOCCO)nc(NCC2CCCO2)c1[N+](=O)[O-] (stereo not given) |
| 0.7 µg/mL (≈ 2.22 µM) | CC(C)NC(=O)c1ccc(COc2ccc(C(C)(C)C)cc2)o1 |
| > 39.2 µg/mL | O=C(NC1CCCCC1)C1COc2ccccc2O1 (stereo not given) |
| 48.3 µg/mL (≈ 140 µM) | CC(=O)c1ccc(NS(=O)(=O)c2ccc3c(c2)CCC(=O)N3)cc1 |

| solubility kinetic | Compound |
| --- | --- |
| 8.4 µg/mL (≈ 27.2 µM) | COC(=O)C1=C(NC(=O)c2ccccc2[N+](=O)[O-])CCS1 |
| < 0.1 µg/mL | COc1ccccc1Nc1nc(NCc2ccco2)nc(N)c1[N+](=O)[O-] |
| 8.8 µg/mL (≈ 20.1 µM) | CC(C)Cn1c(N)c(C(=O)COC(=O)c2ccc(Br)cc2)c(=O)n(C)c1=O |
| > 49.8 µg/mL | CC(=O)Nc1ccc(NS(=O)(=O)c2cccc3nonc23)cc1 |
| 1 µg/mL (≈ 3.16 µM) | CCOc1ccc(C)cc1S(=O)(=O)n1cnc2ccccc21 |
| > 50.5 µg/mL | CC(CC(=O)N1CCN(C(=O)c2ccccc2)CC1)c1ccccc1 (stereo not given) |
| 38.3 µg/mL (≈ 138 µM) | COc1ccc(CN(C)C2CCN(C)CC2)cc1OC |
| 1.4 µg/mL (≈ 4.69 µM) | CCSc1nsc(NC(=O)Nc2ccccc2F)n1 |
| 25.8 µg/mL (≈ 101 µM) | Cc1ccc2nc(N3CCOCC3)c(C=O)cc2c1 |
| 2.6 µg/mL (≈ 8.54 µM) | FC(F)(F)c1nc(NCc2cccnc2)c2ccccc2n1 |
| 2.4 µg/mL (≈ 9.19 µM) | CCOC(=O)/C(C#N)=C\c1ccc(OC)c(OC)c1 |
| 0.6 µg/mL (≈ 1.87 µM) | CC1=Nc2ccc(C)cc2/C1=C/c1c(N)n2oc(C)cc2nc1=O |
| > 47.6 µg/mL | CCSc1nnc(SCC(=O)NC2CCCCC2)s1 |
| 6.3 µg/mL (≈ 21.3 µM) | O=C(c1cccc([N+](=O)[O-])c1)c1ccc2c(c1)C(=O)NC2=O |
| > 54.8 µg/mL | CC1CCCN(CC(=O)Nc2ccc(S(=O)(=O)N3CCCC3)cc2)C1 (stereo not given) |
| > 60.5 µg/mL | COc1cccc(CC(=O)Nc2ccc(S(=O)(=O)Nc3nccs3)cc2)c1 |
| 40.1 µg/mL (≈ 135 µM) | Cc1[nH]c2ccccc2c1C(C[N+](=O)[O-])c1cccc(O)c1 (stereo not given) |
| 66.9 µg/mL (≈ 140 µM) | COc1ccc(NC(=O)CN2C(=O)NC(C)(c3ccc4c(c3)OCO4)C2=O)cc1S(N)(=O)=O (stereo not given) |
| > 42.3 µg/mL | O=C(Nc1ccsc1C(=O)O)c1ccccc1Cl |
| 39.6 µg/mL (≈ 125 µM) | CCCS(=O)(=O)N1CCN=C1SCc1cccc(F)c1 |
| < 0.2 µg/mL | Cc1ccc(-c2nc(-c3ccncc3)no2)cc1Cl |
| 10.7 µg/mL (≈ 29 µM) | CC(=O)c1ccc(N2CCN(C(=O)c3cc4c(s3)CCCC4)CC2)cc1 |

| Compound | solubility kinetic |
| --- | --- |
| COc1ccc(OCC#CCN2CCNCC2)cc1.O=C(O)C(=O)O | 52.4 µg/mL |
| O=C1C2CCN(CC2)C12CC2c1ccc(C(F)(F)F)cc1 (stereo not given) | 23.9 µg/mL (≈ 80.9 µM) |
